Marks after values point to notes of the source that are not given here.
Columns and labels:
[1] = system: β-glucuronidase activity, duodenum lumen contents; experiment: β-glucuronidase cleavage in duodenum lumen contents, free 1,25-D3 by RIA; assay type: in vitro ADME, rats; settings: 2100 pg added
Description: (§2) The proximal 25 cm of duodenum/jejunum, the caudal 12 cm of ileum, and the cranial 12 cm of colon were removed. The contents from the lumen of each section were flushed with 3 ml water, collected, and pooled. Three-ml aliquots of intestinal contents were placed into tubes. To the tubes, either 2100 pg (3.53 pmoles) β-gluc-1,25-D3 was added and incubated at 37° C. for 0, 1, 3, or 6 hrs, or 150 pg (0.36 pmoles) of 1,25-D3 was added and incubated for 0 or 6 hrs. […] Acetonitrile (3 ml) was added to each tube after incubation to end all enzymatic activity, after which the 1,25-D3 was extracted. Tritiated 1,25-D3 was added to each tube to assess extraction efficiency. The preparations were cleaned by HPLC, and the samples were analyzed for 1,25-D3 content by RIA (Heartland Assays, Ames, Iowa) (Hollis et al., J. Steroid Biochem. Mol. Biol. 2007 103(3-5):473-6).

DU-145 cells = experiment: DU-145 cell proliferation (CELLTITER BLUE); assay type: cell-based, human; settings: for Proliferation index (Mean ± SEM): 4 days, control = 100
Description: LNCaP cells (ATCC # CRL-1740) are malignant prostate cancer cells originally obtained from a lymph node of a person whose prostatic cancer had metastasized to the lymph node. LNCaP cells were grown in tissue culture using RPMI-1640 media with 10% fetal bovine serum. Wells of two 48-well tissue culture plates were seeded with 5000 LNCaP cells/well. […] Half the media was replaced with fresh media with treatments on the third day of the treatment period. By day 6 of treatment, wells of control untreated cells were approximately 60% confluent. The live cell numbers in each well at the end of treatment were assessed using the “CELLTITER BLUE”-brand assay kit (Promega Corp., Madison, Wis.). The assay is based on the ability of living cells to convert a redox dye (resazurin) into a fluorescent end product (resorufin). […] A similar study was performed using a second human-derived prostatic cancer cell line known as DU-145 (ATCC# HTB-81). […] Exp. Med. Biol. 1995 375:53-63). The DU-145 cells were propagated in Eagle's Minimum Essential Medium with 10% fetal bovine serum. The cells were treated in culture for just 4 days, with half the media replaced with fresh media on day 3 of treatment. Cells were 40% confluent at the end of treatment.

Cyp24 [2] = experiment: Cyp24 mRNA expression in colon of mice after a single oral dose; assay type: in vivo; settings: 6 hrs; for increase in Cyp24 expression in the colon: relative to untreated mice
Description: (§1) Mice were decapitated 6 hrs later following light anesthesia under inhaled halothane. […] Tissue samples were flushed with ice-cold phosphate-buffered saline and immediately homogenized in 1 ml of TRIzol® reagent (Invitrogen Corp., Carlsbad, Calif.). Samples were then kept frozen at −86° C. prior to processing for RNA. For processing RNA, each TRIzol® homogenate was thawed at room temperature and 500 μl placed in a clean microfuge tube, mixed thoroughly with 100 μl chloroform for 15 sec and then centrifuged at 12,000×g for 15 min at 4° C. The upper aqueous phase was removed and mixed with 0.93 volumes of 75% EtOH. The mixture was then applied to an RNeasy spin column (Qiagen Inc., Germantown, Md.) and processed as described by the manufacturer with the exception that an additional wash with 2M NaCl/2 mM EDTA (pH 4.0) was included (Das et al. J Vet Diagn Invest. 2009; 21:771-778). RNA was eluted in 50 μl of water and the concentration obtained by UV spectrometry. One microgram of RNA was then used as a template for production of cDNA in a 20-μl reaction volume using random hexamers and Superscript III as described by the manufacturer (Invitrogen, Carlsbad, Calif.). Afterwards, samples were diluted to 100 μl final volume with TE buffer and stored at −20° C. prior to PCR analysis. Quantitative real-time RT-PCR was performed using a Stratagene Mx3005p cycler (Stratagene, La Jolla, Calif.) and PerfeCTa® SYBR® Green FastMix®, ROX reagent (Quanta Biosciences, Gaithersburg, Md.). Amplification of target cDNAs was accomplished with the following primers: Aliquots (8.3 ng) of cDNA were amplified under the following conditions: 95° C. for 30 sec, followed by 45 cycles of 95° C. for 1 sec and 57° C. for 30 sec. […] Oligonucleotides were obtained from Integrated DNA Technologies (Coralville, Iowa).

[3] = system: β-glucuronidase activity, ileum lumen contents; experiment: β-glucuronidase cleavage in ileum lumen contents, free 1,25-D3 by RIA; assay type: in vitro ADME, rats; settings: 2100 pg added
Description: as §2

[4] = Plasma calcium in the DSS mouse model of IBD; assay type: in vivo; settings: DSS mice
Text: In this example, β-gluc-1,25-D3 compounds, alone or in combination with 25-β-glucuronide-25-hydroxyvitamin D3 compounds (hereinafter β-gluc-25-D3) were incorporated into the diet of mice and compared to equimolar 1,25-D3 with respect to therapeutic effects on IBD and induction of calcemia. A standard mouse model of IBD comprising administering dextran sodium sulfate (DSS) to induce inflammation of the lower colon was used to study these effects. Vitamin D treatments were first initiated for 4 days. After 4 days, mice were fed DSS-water for 7 days, allowed one day to recover, and sacrificed. Colon length, plasma calcium, fecal blood score, and body weight were assayed. Colon length is a standard marker of intestinal inflammation in the literature, with shortened colon length being an indicator of inflammation. A 1-cm section of the mid-colon was removed, fixed in formalin, and stained with hematoxylin & eosin for microscopic histopathologic evaluation by a veterinary pathologist blinded to the treatments. Each tissue section received a score from 0 to 4 reflecting absence of lesion to severe, extensive lesion for each of three criteria: (1) the degree of erosion/ulceration of colon mucosa; (2) the degree of infiltration of the tissues by inflammatory cells; and (3) the degree of submucosal edema. The sum of the score of each of these criteria constitutes the histopathological score for the tissue with a zero score representing normal tissue based on all criteria, and the worst possible outcome being a score of 12.

Cyp24 [5] = experiment: Cyp24 mRNA expression in duodenum of mice after a single oral dose; assay type: in vivo; settings: for Cyp24 expression in the duodenum, induction over control mice: 24 pmol per os
Description: as §1

C=C1/C(=C\C=C2/CCC[C@]3(C)[C@@H]([C@H](C)CCCC(C)(C)O[C@@H]4O[C@H](C(=O)O)[C@@H](O)[C@H](O)[C@H]4O)CC[C@@H]23)C[C@@H](O)C[C@@H]1O [β-gluc-1,25-D3, 25-β-glucuronide-1,25-dihydroxyvitamin D3]
Measured Free 1,25-dihydroxy vitamin D ([1]; 0 hrs incubation): 29 pg | Measured Free 1,25-dihydroxy vitamin D ([1]; 1 hr incubation): 38 pg | Measured Free 1,25-dihydroxy vitamin D ([1]; 3 hrs incubation): 63 pg | Measured Free 1,25-dihydroxy vitamin D ([1]; 6 hrs incubation): 105 pg | Proliferation index (Mean ± SEM) (DU-145 cells; DU-145, 20 nM): 90.3 ± 2.2 | Proliferation index (Mean ± SEM) (DU-145 cells; DU-145, 100 nM): 88.7 ± 2.8 | reducing cell proliferation versus native hormone (DU-145 cells; DU-145 cells): as active as the native hormone | colon Cyp24 response relative to the equimolar dose of 1,25-D3 (Cyp24 [2]; 12 pmol per os): about 20 times | increase in Cyp24 expression in the colon (Cyp24 [2]; 12 pmol per os): 60 fold | increase in Cyp24 in the colon over control mice (Cyp24 [2]; 24 pmol per os): about 700 fold | increase in Cyp24 expression in the colon (Cyp24 [2]; 48 pmol per os): > 400 fold | Measured Free 1,25-dihydroxy vitamin D ([3]; 0 hrs incubation): 39 pg | Measured Free 1,25-dihydroxy vitamin D ([3]; 1 hr incubation): 1323 pg | Measured Free 1,25-dihydroxy vitamin D ([3]; 3 hrs incubation): 1127 pg | Measured Free 1,25-dihydroxy vitamin D ([3]; 6 hrs incubation): 1342 pg | Plasma Calcium ([4]; 14 ng/day in diet): 10.25 ± 0.33 mg/dL | Plasma Calcium ([4]; 70 ng/day in diet): 10.12 ± 0.30 mg/dL | Plasma Calcium ([4]; 350 ng/day in diet): 10.72 ± 0.33^d mg/dl | hypercalcemia ([4]; alone at 70 ng/day): not accompanied by a physiologically significant increase in hypercalcemia | Cyp24 expression in the duodenum, induction over control mice (Cyp24 [5]; 3 hours): 1300 fold | Cyp24 expression in the duodenum, induction over control mice (Cyp24 [5]; 6 hours): 500 fold | induction of Cyp24 in the duodenum versus analogous dose of 1,25-D3 (Cyp24 [5]; 6, 12, 24, 48 pmol per os, 6 hrs): consistently less effective than the analogous dose of 1,25-D3

From patent US20110152207A1, “USE OF VITAMIN D GLYCOSIDES AND SULFATES FOR TREATMENT OF DISEASE” (priority 2009, published 2011)
